These results are taken from patent US9295735B2, “Liposomal composition for convection-enhanced delivery to the central nervous centre” (MEDGENESIS THERAPEUTIX, INC., priority 2008, dated 2016).

The subject of series [1] is various malignant glioma cells lines. As to conditions: read-out: 50% inhibitory concentration (IC50), cited from earlier work.
A short description of series [2]: Brain tissue pharmacokinetics of Ls-TPT formulations and free topotecan after intracerebral CED (HPLC of total topotecan). Type of series: in vivo, Sprague-Dawley rats. On the procedure: The experiments in this example were performed with research grade material of both liposomal-topotecan (Ls-TPT) and liposomal gadodiamide (Ls-GD). Topotecan (TPT) for free topotecan formulation and for Ls-TPT preparation was obtained from Hisun Pharmaceuticals (Taizhou City, Zhejiang, China). Ls-TPT was provided by Northern Lipids Inc (Burnaby, BC, Canada). In brief, liposomes were composed of distearoylphosphatidylcholine (DSPC), distearoylphosphatidylglycerol (DSPG), and cholesterol at a 7:2:1 molar ratio with 75 to 90 nm target size. Topotecan was remotely loaded (actively encapsulated) into liposomes in response to a transmembrane pH gradient using internal and external buffers consisting of ammonium sulfate 250 mM pH 5.5 and histidine 5 mM/NaCl 145 mM pH 6.0 respectively. Topotecan concentrations of 0.67 and 2.0 mg/mL with a 0.1 and 0.3 (w/w) drug:lipid ratio were respectively targeted assuming a 90-95% drug encapsulation efficiency. A constant total lipid concentration target of 6.7 mg/mL was maintained in both formulations. The manufacturing process is described in details in Example 2.1.2.
For the formulation screening component of this example, the animals were divided in 4 groups based on Ls-TPT formulations or free topotecan as outlined in Table 1.
Rats were anesthetized with either isoflurane (5% for induction; 2.5 to 3.0% for maintenance during surgery) inhalation or a combination of ketamine (60 mg/kg) and xylazine (8 mg/kg) via an intraperitoneal injection. […] Craniectomy was performed using a small electric dental drill with 1-mm diameter burr holes, 0.5 mm anterior and 3 mm left and right from the bregma. […] The test article was injected bilaterally at one site into each striatum.
The brains were removed, placed on ice and the striata dissected using a dorsal approach and the tissue frozen in liquid nitrogen. The tissue was subsequently homogenized with an equal volume of water (1:1 v/v) and then extracted with methanol and stored at −70° C. until shipment to the Sponsor. Tail vein blood was collected (1.0 mL) for the formulation tissue and plasma pharmacokinetics component of this Example.
High performance liquid chromatography (HPLC) of total topotecan (free and liposome-encapsulated) in brain tissue and in plasma was performed by Northern Lipids Inc. (Burnaby, BC, Canada) using an isocratic reversed phase HPLC/UV method. Method details were as follows. Briefly, the animals (n=3) were sacrificed at 1 and 6 hours, 2, 4 and 7 days. The brains were removed, placed on ice, the striata dissected using a dorsal approach and the tissue frozen in liquid nitrogen. Equal volume of ice cold water (1:1 w/w) was added and the thawed tissue was homogenized (Biospec) mechanically for 2 minutes and frozen.

The mark [3] stands for this setting: normal rat brain tissue after CED, non-compartmental analysis.

Molecules are shown by their SMILES. Like-named read-outs stand apart in the source and are kept apart here. A value given as a limit tells only on which side of the number the result lay.

As to `CC[C@@]1(O)C(=O)OCc2c1cc1n(c2=O)Cc2cc3c(CN(C)C)c(O)ccc3nc2-1` [Formulation F4, topotecan], the IC50 in series [1] (exposure over 1 hour) was 2400 nM; in series [1] (exposure over 24 hours), 38 nM; in series [1] (exposure over 72 hours), 280 nM; in series [1] (exposure over 120 hours) it was no less than 20 nM. In addition, the concentration at 1 h in series [2] (Sprague-Dawley, brain (striatum), normal rat striatum, CED 20 μL per hemisphere, TPT 0.5 mg/mL, 1 hour, read-out: Topotecan brain tissue concentration, Mean ± STD) turned out to be 44.3 ± 39.4 µM. In series [2] (Sprague-Dawley, brain (striatum), normal rat striatum, CED 20 μL per hemisphere, TPT 0.5 mg/mL, 6 hours, read-out: Topotecan brain tissue concentration, Mean ± STD), the concentration at 6 h came to 15.6 ± 13.8 µM. The concentration at 48 h in series [2] (Sprague-Dawley, brain (striatum), normal rat striatum, CED 20 μL per hemisphere, TPT 0.5 mg/mL, 48 hours, read-out: Topotecan brain tissue concentration, Mean ± STD) stood at 0 nM. The concentration at 96 h in series [2] (Sprague-Dawley, brain (striatum), normal rat striatum, CED 20 μL per hemisphere, TPT 0.5 mg/mL, 96 hours, read-out: Topotecan brain tissue concentration, Mean ± STD) was 0 nM. In addition, the concentration at 168 h in series [2] (Sprague-Dawley, brain (striatum), normal rat striatum, CED 20 μL per hemisphere, TPT 0.5 mg/mL, 168 hours, read-out: Topotecan brain tissue concentration, Mean ± STD) was 0 nM. Moreover, the “AUC(0-last)” value in series [2] (setting [3]) was found to be 5.5 µg·days/g. The t1/2 result in series [2] (setting [3]) was “much shorter”. The “Topotecan brain tissue concentration, Mean ± STD” value is listed as 0.0203 ± 0.0181 mg/g of brain tissue in series [2] (normal rat striatum, CED 20 μL per hemisphere, TPT 0.5 mg/mL, 1 hour); 0.0071 ± 0.0063 mg/g of brain tissue in series [2] (normal rat striatum, CED 20 μL per hemisphere, TPT 0.5 mg/mL, 6 hours); 0 mg/g of brain tissue in series [2] (normal rat striatum, CED 20 μL per hemisphere, TPT 0.5 mg/mL, 48 hours); 0 mg/g of brain tissue in series [2] (normal rat striatum, CED 20 μL per hemisphere, TPT 0.5 mg/mL, 96 hours); 0 mg/g of brain tissue in series [2] (normal rat striatum, CED 20 μL per hemisphere, TPT 0.5 mg/mL, 168 hours).
